According to EP0321967A2, “Compounds active on the cardiovascular system” (ZAMBON GROUP S.p.A., priority 1987, dated 1989):

Assays:
α₁ = assay: α1-antagonistic effect on phenylephrine-induced vasoconstriction of rabbit isolated aorta; format: cell-based; details: antagonism of vasoconstriction induced by phenylephrine (α₁-agonist)
Description: The α₁-antagonistic effect has been evaluated as antagonistic effect (pA₂) on vasoconstriction induced by phenylephrine (α₁-agonist) on rabbit isolated aorta. For compound A the obtained pA₂ value was 7.7.

[1] = test system: spontaneously hypertensive rat; assay: Systemic arterial pressure decrease after intravenous administration in spontaneously hypertensive rat; format: in vivo; details: in comparison with the basal value
Description: The compounds object of the present invention after administration by intravenous route in spontaneously hypertensive rat at the dose of 0.033-0.53 µm/kg induce a meaningful systemic arterial pressure decrease comprised between 20 and 90 mmHg.

D₂ receptor = molecular target: T1, D₂ receptor (Rattus norvegicus, UniProt P61169); assay: Dopaminergic activity: receptor binding on isolated membranes of rat striated muscle, D2; details: read-out: IC₅₀
T1 construct: from tissue; host or cells: isolated membranes of rat striated muscle (so in the source); probably striatum is meant
Method: (§1) The dopaminergic activity of compound A, for example, has been evaluated as percentage of receptor binding on isolated membranes of rat striated muscle; the IC₅₀ resulted to be 0.3 µM for D₂ receptor and 3 µM for D₁ receptor.

D₁ receptor = molecular target: T2, D₁ receptor (Rattus norvegicus, UniProt P18901); assay: Dopaminergic activity: receptor binding on isolated membranes of rat striated muscle, D1; details: read-out: IC₅₀
T2 construct: from tissue; host or cells: isolated membranes of rat striated muscle (so in the source); probably striatum is meant
Method: as §1

T1 sequence (P61169 whole entry): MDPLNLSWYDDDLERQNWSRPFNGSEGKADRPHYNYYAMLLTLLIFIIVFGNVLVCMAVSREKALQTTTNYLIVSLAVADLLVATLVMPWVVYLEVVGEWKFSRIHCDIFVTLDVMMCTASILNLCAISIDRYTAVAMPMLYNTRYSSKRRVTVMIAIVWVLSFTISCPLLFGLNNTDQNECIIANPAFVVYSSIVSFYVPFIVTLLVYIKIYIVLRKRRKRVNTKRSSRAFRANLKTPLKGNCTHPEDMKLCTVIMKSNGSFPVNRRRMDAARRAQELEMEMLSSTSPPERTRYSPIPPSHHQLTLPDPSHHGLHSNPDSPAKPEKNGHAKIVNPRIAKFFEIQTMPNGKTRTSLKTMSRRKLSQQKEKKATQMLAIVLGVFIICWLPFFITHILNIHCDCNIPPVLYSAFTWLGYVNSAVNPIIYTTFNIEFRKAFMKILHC
T2 sequence (P18901 whole entry): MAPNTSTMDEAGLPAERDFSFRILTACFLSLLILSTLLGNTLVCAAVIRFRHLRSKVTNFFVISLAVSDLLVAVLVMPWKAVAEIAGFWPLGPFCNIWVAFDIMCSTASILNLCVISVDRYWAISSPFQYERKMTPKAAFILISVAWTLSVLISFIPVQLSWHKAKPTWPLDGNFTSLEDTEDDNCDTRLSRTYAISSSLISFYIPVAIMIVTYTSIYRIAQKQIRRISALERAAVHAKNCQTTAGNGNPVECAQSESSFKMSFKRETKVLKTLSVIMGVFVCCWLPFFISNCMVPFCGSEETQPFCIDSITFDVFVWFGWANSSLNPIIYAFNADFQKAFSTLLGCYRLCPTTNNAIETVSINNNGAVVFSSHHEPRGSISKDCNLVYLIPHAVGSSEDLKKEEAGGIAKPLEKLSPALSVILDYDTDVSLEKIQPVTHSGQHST

- IC50 (D₂ receptor): 300 nM
- IC50 (D₁ receptor): 3 µM
Compound: CCCN(CCOc1ccccc1OC)CCc1ccc(O)c(O)c1.Cl [compound A, N-[2-(2-methoxyphenoxy)ethyl]-N-propyl-dopamine hydrochloride]
- pA₂ (α₁): 7.7
- reduction of systemic arterial pressure ([1]; dose 12.5 µg/kg): 51 mmHg
- reduction of systemic arterial pressure ([1]; dose 200 µg/kg): 89 mmHg
